Reference: patent US8785614B2, “Aberrantly methylated genes in pancreatic cancer” (The Johns Hopkins University, priority 2003, dated 2014)
Where two headings read alike, the source gives them in different places.

Assays:
[1] = system: Hs766T pancreatic cancer cell line
Method: (§1) Mock-treated cells were cultured with the equivalent volume of PBS alone.
(§2) Total RNA was isolated from cultured cells using TRIZOL reagent (invitrogen, Carlsbad, Calif.) and purified using RNeasy Mini Kit (Qiagen, Valencia, Calif.). First- and second-stranded cDNA was synthesized from 10 μg of total RNA using 17-dT) primer (Genset Corp., La Jolla, Calif.) and Superscript Choice system (Invitrogen). Labeled cRNA was synthesized from the purified cDNA by in vitro transcription reaction using the BioArray High Yield RNA Transcript Labeling Kit (Enzo Diagnostics, Inc., Farmingdale, N.Y.) at 37° C. for 6 h. The cRNA was fragmented at 94° C. for 35 min. in a fragmentation buffer [40 mM Tris-acetate @ pH 8.1, 100 mM potassium acestate, and 30 mM magnesium acetate]. The fragmented cRNA was then hybridized to the Human Genome U133A chips (Affymetrix, Santa Clara, Calif.) with 18462 unique gene/EST transcripts at 45° C. for 16 h. The washing and staining procedure was performed in the Affymetrix Fluidics Station according to the manufacturer's instructions. The probes were then scanned using a laser scanner, and signal intensity for each transcript (background-subtracted and adjusted for noise) was calculated using Microarray Suite Software 5.0 (Affymetrix).
(§3) Fold change analysis of signal intensities obtained from oligonucleotide microarrays between the two treatment groups was performed using Data Mining software (Afrymetrix).
(§4) The global changes in gene expression proxies induced by 5Aza-dC in four pancreatic cancer cell lines (AsPCl, Hs766T, MiaPaCa2, and Panel) were determined using the Afrymetrix U133 oligonucleotide microarrays with 18462 probes sets (transcripts) covering over 13000 full-length sequences of known genes.

[2] = system: MiaPaCa2 pancreatic cancer cell line
Method: as §1, §2, §3, §4

Structure (SMILES): Nc1ncn([C@H]2C[C@H](O)[C@@H](CO)O2)c(=O)n1 [5Aza-dC, 5 aza 2′ deoxycytidine]
- Fold-change after 5Aza-dC treatment ([1]; ANGPT2, Hs766T): −0.44 fold
- Fold-change after 5Aza-dC treatment ([1]; BARD1, Hs766T): 5.21 fold
- Fold-change after 5Aza-dC treatment ([1]; BNIP3, Hs766T): −1.75 fold
- Fold-change after 5Aza-dC treatment ([1]; BST2, Hs766T): 1.36 fold
- Fold-change after 5Aza-dC treatment ([1]; CACNA1G, Hs766T): 0.5 fold
- Fold-change after 5Aza-dC treatment ([1]; CCNE2, Hs766T): 5.28 fold
- Fold-change after 5Aza-dC treatment ([1]; CDH3, Hs766T): 0.89 fold
- Fold-change after 5Aza-dC treatment ([1]; CDKN1A (p21), Hs766T): 1.04 fold
- Fold-change after 5Aza-dC treatment ([1]; CDKN1C, Hs766T): 5.42 fold
- Fold-change after 5Aza-dC treatment ([1]; CLDN5, Hs766T): 1.21 fold
- Fold-change after 5Aza-dC treatment ([1]; CSF1, Hs766T): 5.75 fold
- Fold-change after 5Aza-dC treatment ([1]; DR3, Hs766T): −1.46 fold
- Fold-change after 5Aza-dC treatment ([1]; FOXE1, Hs766T): 5.63 fold
- Fold-change after 5Aza-dC treatment ([1]; GAGE1, Hs766T): 0.48 fold
- Fold-change after 5Aza-dC treatment ([1]; GAGE3, Hs766T): −2.57 fold
- Fold-change after 5Aza-dC treatment ([1]; GAGE4, Hs766T): −1.1 fold
- Fold-change after 5Aza-dC treatment ([1]; GAGE6, Hs766T): 1.09 fold
- Fold-change after 5Aza-dC treatment ([1]; GAGE7, Hs766T): −1.12 fold
- Fold-change after 5Aza-dC treatment ([1]; HOXA1, Hs766T): −1.61 fold
- transcripts with >5-fold increase, share of the 18462 transcripts analyzed ([1]; Hs766T): 0.9%
- transcripts with substantial increase (>5-fold) in signal intensities ([1]; Hs766T, vs mock-treated): 167 transcripts
- Fold-change after 5Aza-dC treatment ([1]; IGF2, Hs766T): −0.41 fold
- Fold-change after 5Aza-dC treatment ([1]; IL1R1, Hs766T): −2.59 fold
- Fold-change after 5Aza-dC treatment ([1]; ISG20, Hs766T): 1.02 fold
- Fold-change after 5Aza-dC treatment ([1]; JPH3, Hs766T): 5.27 fold
- Fold-change after 5Aza-dC treatment ([1]; KLK10, Hs766T): 1.16 fold
- Fold-change after 5Aza-dC treatment ([1]; LDOC1, Hs766T): −1.86 fold
- Fold-change after 5Aza-dC treatment ([1]; LHX1, Hs766T): 1.92 fold
- Fold-change after 5Aza-dC treatment ([1]; MAGE1, Hs766T): 4.45 fold
- Fold-change after 5Aza-dC treatment ([1]; MATN1, Hs766T): 6.83 fold
- Fold-change after 5Aza-dC treatment ([1]; NEFH, Hs766T): −1.24 fold
- Fold-change after 5Aza-dC treatment ([1]; NPTX2, Hs766T): −2.6 fold
- Fold-change after 5Aza-dC treatment ([1]; PAX6, Hs766T): 1.36 fold
- Fold-change after 5Aza-dC treatment ([1]; PDYN, Hs766T): 6.38 fold
- Fold-change after 5Aza-dC treatment ([1]; PLAT, Hs766T): −1.73 fold
- Fold-change after 5Aza-dC treatment ([1]; PLEK2, Hs766T): 1.12 fold
- Fold-change after 5Aza-dC treatment ([1]; SARP2, Hs766T): 1.35 fold
- Fold-change after 5Aza-dC treatment ([1]; SMARCA1, Hs766T): −0.79 fold
- Fold-change after 5Aza-dC treatment ([1]; ST14, Hs766T): −4.72 fold
- Fold-change after 5Aza-dC treatment ([1]; TIMP3, Hs766T): −3.67 fold
- Fold-change after 5Aza-dC treatment ([1]; TJP2, Hs766T): −1.56 fold
- Fold-change after 5Aza-dC treatment ([1]; TNF, Hs766T): −4.9 fold
- Fold-change after 5Aza-dC treatment ([1]; UCHL1, Hs766T): 1.45 fold
- Fold-change after 5Aza-dC treatment ([1]; WNT7A, Hs766T): 9.03 fold
- Fold-change after 5Aza-dC treatment ([1]; XAGE-1, Hs766T): −0.5 fold
- Fold-change after 5Aza-dC treatment ([1]; granulocytemacrophage colony-stimulating factor (M11734), Hs766T): 5.53 fold
- Fold-change after 5Aza-dC treatment ([1]; interferon, alpha-inducible protein (NM_022873), Hs766T): −4.46 fold
- Fold-change after 5Aza-dC treatment ([1]; p53-induced protein (PIGII), Hs766T): 1.04 fold
- Fold-change after 5Aza-dC treatment ([1]; reprimo, Hs766T): 6.65 fold
- Fold-change after 5Aza-dC treatment ([1]; stratifin (14-3-3 sigma), Hs766T): −1.64 fold
- Fold-change after 5Aza-dC treatment ([1]; stromal antigen 3 (STAG5), Hs766T): 1.01 fold
- Fold-change after 5Aza-dC treatment ([1]; testin, Hs766T): 1.6 fold
- Fold-change after 5Aza-dC treatment ([2]; ANGPT2, MiaPaCa2): 2.27 fold
- Fold-change after 5Aza-dC treatment ([2]; BARD1, MiaPaCa2): −1.3 fold
- Fold-change after 5Aza-dC treatment ([2]; BNIP3, MiaPaCa2): 21.32 fold
- Fold-change after 5Aza-dC treatment ([2]; BST2, MiaPaCa2): 8.59 fold
- Fold-change after 5Aza-dC treatment ([2]; CACNA1G, MiaPaCa2): 1.61 fold
- Fold-change after 5Aza-dC treatment ([2]; CCNE2, MiaPaCa2): 1.09 fold
- Fold-change after 5Aza-dC treatment ([2]; CDH3, MiaPaCa2): 5.79 fold
- Fold-change after 5Aza-dC treatment ([2]; CDKN1A (p21), MiaPaCa2): 7.04 fold
- Fold-change after 5Aza-dC treatment ([2]; CDKN1C, MiaPaCa2): 2.28 fold
- Fold-change after 5Aza-dC treatment ([2]; CLDN5, MiaPaCa2): 1.67 fold
- Fold-change after 5Aza-dC treatment ([2]; CSF1, MiaPaCa2): 4.23 fold
- Fold-change after 5Aza-dC treatment ([2]; DR3, MiaPaCa2): 2.12 fold
- Fold-change after 5Aza-dC treatment ([2]; FOXE1, MiaPaCa2): 3.8 fold
- Fold-change after 5Aza-dC treatment ([2]; GAGE1, MiaPaCa2): 6.7 fold
- Fold-change after 5Aza-dC treatment ([2]; GAGE3, MiaPaCa2): 15.22 fold
- Fold-change after 5Aza-dC treatment ([2]; GAGE4, MiaPaCa2): 47.6 fold
- Fold-change after 5Aza-dC treatment ([2]; GAGE6, MiaPaCa2): 24.03 fold
- Fold-change after 5Aza-dC treatment ([2]; GAGE7, MiaPaCa2): 54.35 fold
- Fold-change after 5Aza-dC treatment ([2]; HOXA1, MiaPaCa2): 2.56 fold
- Fold-change after 5Aza-dC treatment ([2]; IGF2, MiaPaCa2): 0.81 fold
- Fold-change after 5Aza-dC treatment ([2]; IL1R1, MiaPaCa2): −1.77 fold
- Fold-change after 5Aza-dC treatment ([2]; ISG20, MiaPaCa2): 21.28 fold
- Fold-change after 5Aza-dC treatment ([2]; JPH3, MiaPaCa2): 1.4 fold
- Fold-change after 5Aza-dC treatment ([2]; KLK10, MiaPaCa2): 136.95 fold
- Fold-change after 5Aza-dC treatment ([2]; LDOC1, MiaPaCa2): −1.01 fold
- Fold-change after 5Aza-dC treatment ([2]; LHX1, MiaPaCa2): 1.89 fold
- Fold-change after 5Aza-dC treatment ([2]; MAGE1, MiaPaCa2): 2.27 fold
- Fold-change after 5Aza-dC treatment ([2]; MATN1, MiaPaCa2): −1.01 fold
- transcripts with >5-fold increase, share of the 18462 transcripts analyzed ([2]; MiaPaCa2): 1.4%
- transcripts with substantial increase (>5-fold) in signal intensities ([2]; MiaPaCa2, vs mock-treated): 251 transcripts
- Fold-change after 5Aza-dC treatment ([2]; NEFH, MiaPaCa2): 6.73 fold
- Fold-change after 5Aza-dC treatment ([2]; NPTX2, MiaPaCa2): 6.4 fold
- Fold-change after 5Aza-dC treatment ([2]; PAX6, MiaPaCa2): −1.12 fold
- Fold-change after 5Aza-dC treatment ([2]; PDYN, MiaPaCa2): 3.48 fold
- Fold-change after 5Aza-dC treatment ([2]; PLAT, MiaPaCa2): 6.4 fold
- Fold-change after 5Aza-dC treatment ([2]; PLEK2, MiaPaCa2): 7.5 fold
- Fold-change after 5Aza-dC treatment ([2]; SARP2, MiaPaCa2): 38.33 fold
- Fold-change after 5Aza-dC treatment ([2]; SMARCA1, MiaPaCa2): −1.07 fold
- Fold-change after 5Aza-dC treatment ([2]; ST14, MiaPaCa2): 1.48 fold
- Fold-change after 5Aza-dC treatment ([2]; TIMP3, MiaPaCa2): 1 fold
- Fold-change after 5Aza-dC treatment ([2]; TJP2, MiaPaCa2): 8.61 fold
- Fold-change after 5Aza-dC treatment ([2]; TNF, MiaPaCa2): 31.63 fold
- Fold-change after 5Aza-dC treatment ([2]; UCHL1, MiaPaCa2): 5.27 fold
- Fold-change after 5Aza-dC treatment ([2]; WNT7A, MiaPaCa2): 6.24 fold
- Fold-change after 5Aza-dC treatment ([2]; XAGE-1, MiaPaCa2): 12.99 fold
- Fold-change after 5Aza-dC treatment ([2]; granulocytemacrophage colony-stimulating factor (M11734), MiaPaCa2): 3.97 fold
- Fold-change after 5Aza-dC treatment ([2]; interferon, alpha-inducible protein (NM_022873), MiaPaCa2): 11.03 fold
- Fold-change after 5Aza-dC treatment ([2]; p53-induced protein (PIGII), MiaPaCa2): 5.45 fold
- Fold-change after 5Aza-dC treatment ([2]; reprimo, MiaPaCa2): −1.09 fold
- Fold-change after 5Aza-dC treatment ([2]; stratifin (14-3-3 sigma), MiaPaCa2): 34.77 fold
- Fold-change after 5Aza-dC treatment ([2]; stromal antigen 3 (STAG5), MiaPaCa2): 4.96 fold
- Fold-change after 5Aza-dC treatment ([2]; testin, MiaPaCa2): 9.61 fold
